From patent US20260176249A1, “PROTEIN KINASE INHIBITOR, PREPARATION METHOD THEREFOR, AND APPLICATION THEREOF” (SHANDONG LUYE PHARMACEUTICAL CO., LTD., priority 2021, published 2026)

Tests used:
[1] = test system: Caco-2 cells; assay: Permeability and efflux transporter substrate evaluation in Caco-2 cells; format: in vitro ADME; design: Papp A→B at 120 min / Papp B→A at 120 min / efflux ratio at 120 min / Papp at 120 min: dose or concentration left out as unconfirmed; settings: Caco-2
Summary of the method: (§1)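 Bidirectional (A-B, B-A) transport across 21-28-day Caco-2 monolayers in HBSS/10 mM HEPES pH 7.40, test substance at […], 7200 s incubation. LC-MS/MS quantitation; Papp, efflux ratio and recovery calculated, monolayer integrity checked by Lucifer Yellow rejection.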

[2] = as above; format: in vitro ADME; design: Papp A→B at 120 min / Papp B→A at 120 min / efflux ratio at 120 min / Papp at 120 min: dose or concentration left out as unconfirmed; settings: human; for Papp at 120 min / efflux ratio at 120 min: Caco-2, pH 7.4; for Papp at 120 min: read-out: Classification Permeability; for Papp A→B at 120 min / Papp B→A at 120 min: pH 7.4, pH 7.40; for Papp A→B at 120 min: Caco-2, apical to basolateral; for Papp B→A at 120 min: Caco-2, basolateral to apical
Summary of the method: as §1

[3] = test system: HCT116 cells; assay: In vivo pharmacodynamic study of compound 18 in HCT116 tumor-bearing mice; design: species or system Balb/C Nude mice; settings: 60 mg/kg once a day by gavage
Method: (§2) a. Establishment of tumor-bearing mouse model: HCT116 cells in the logarithmic growth phase were taken and cultured, the cells were collected and counted, and then subcutaneously inoculated into Balb/C Nude mice at 1×10^6/mouse. The tumor volume and body weight of the mice were measured regularly. 7 days after inoculation, mice with tumor volume of 150 mm3 were randomly divided into groups and treated with corresponding drugs.
(§3) 3. Data processing: All data were organized in EXCEL, and One-way ANOVA analysis and drawing were performed using GraphPad Prism 8.0 software. Statistical significance was achieved when p<0.05.
1. Experiment materials: Same as Test example 5.
a. Establishment of tumor-bearing mouse model: Same as Test example 5.
b. […] The administration was performed once a day by gavage for 7 consecutive days, and the tumor volume and body weight of the mice were measured regularly.
3. Data processing: Same as Test example 5.

[4] = test system: HCT116 cells; assay: In vivo pharmacodynamic study of compound 1 in HCT116 tumor-bearing mice; design: species or system Balb/C Nude mice; settings: 20 mg/kg once a day by gavage, vs sham group
Description: Balb/C Nude mice, SPF grade, male, weighing 18-20 g, were purchased from Jiangsu Gempharmatech Co., Ltd.
HCT116 cells were purchased from ATCC.
Matrigel Matrix, Cat. No. 354248, was purchased from Becton, Dickinson and Company.
Kolliphor® HS 15, Cat. No. 42966, was purchased from Sigma-Aldrich.
as §2
b. […] The administration was performed once a day by gavage for 21 consecutive days, and the tumor volume and body weight of the mice were measured regularly.
as §3

In the case of `CN1CCN(c2ccc(OC(F)(F)F)c(Nc3ncc4c(n3)-c3c(c(C(N)=O)nn3CCO)CC4)c2)CC1` [Onvansertib, reference compound], the “Classification Efflux transporter substrate” value [1] is reported as “Likely (ERa ≥ 2.00)”, the Papp at 120 min [2] is reported as < 0.5 ×10⁻⁶ cm/s and the Papp A→B at 120 min [2] is reported as 0.299 ×10⁻⁶ cm/s. For the same compound, the Papp B→A at 120 min [2] was 43.6 ×10⁻⁶ cm/s, the “body weight decrease compared to before administration” value ([3]; 5 days) was 8.4% and the “body weight decrease compared to before administration” value ([3]; 7 days) was 19.5%. For the same compound, the tumor inhibition rate ([3]; 7 days, vs control group) was 62.7%, the tumor inhibition rate ([4]; 11 days) was 54.9% and the tumor inhibition rate ([4]; 16 days) was 39.6%. For the same compound, the tumor inhibition rate ([4]; 21 days) was 37.0%.

With `Cn1nc(C(N)=O)c2ccc3cnc(Nc4cc(N5CCN(CCO)CC5)ccc4OC(F)(F)F)nc3c21` [Compound 16] the “Classification Efflux transporter substrate” value [1] was “Likely (ERa ≥ 2.00)”, the efflux ratio at 120 min [2] was 7.27 and the Papp at 120 min [2] was 0.5 to 2.5 ×10⁻⁶ cm/s. It also gave a Papp A→B at 120 min [2] of 0.917 ×10⁻⁶ cm/s and a Papp B→A at 120 min [2] of 6.66 ×10⁻⁶ cm/s.

For `Cn1nc(C(N)=O)c2c1-c1nc(Nc3cc(N4CCN(CCO)CC4)ccc3OC(F)(F)F)ncc1CC2` [Compound 20], the “Classification Efflux transporter substrate” value [1] was “Likely (ERa ≥ 2.00)”, the efflux ratio at 120 min [2] was 10.4 and the Papp at 120 min [2] was 0.5 to 2.5 ×10⁻⁶ cm/s. It also gave a Papp A→B at 120 min [2] of 1.3 ×10⁻⁶ cm/s and a Papp B→A at 120 min [2] of 13.4 ×10⁻⁶ cm/s.

For `CN1CCN(c2ccc(OC(F)(F)F)c(Nc3ncc4c(n3)-c3c(c(C(N)=O)cn3CCO)CC4)c2)CC1` [Compound 2], the “Classification Efflux transporter substrate” value [1] was “Likely (ERa ≥ 2.00)”, the efflux ratio at 120 min [2] was > 54.4 and the Papp at 120 min [2] was < 0.5 ×10⁻⁶ cm/s. The Papp A→B at 120 min [2] was < 0.48 ×10⁻⁶ cm/s and the Papp B→A at 120 min [2] was 26.1 ×10⁻⁶ cm/s.

With `CN1CCN(c2ccc(OCC(F)(F)F)c(Nc3ncc4c(n3)-c3c(c(C(N)=O)nn3CCO)CC4)c2)CC1` [Compound 24] the “Classification Efflux transporter substrate” value [1] was “Likely (ERa ≥ 2.00)”, the efflux ratio at 120 min [2] was 279 and the Papp at 120 min [2] was < 0.5 ×10⁻⁶ cm/s. For the same compound, the Papp A→B at 120 min [2] was 0.106 ×10⁻⁶ cm/s and the Papp B→A at 120 min [2] was 29.5 ×10⁻⁶ cm/s.

With `CN1CCN(c2ccc(OC(F)(F)F)c(Nc3ncc4c(n3)-c3c(c(C(N)=O)nn3CCC#N)CC4)c2)CC1` [Compound 4] the “Classification Efflux transporter substrate” value [1] was “Likely (ERa ≥ 2.00)”, the efflux ratio at 120 min [2] was 22.1 and the Papp at 120 min [2] was 0.5 to 2.5 ×10⁻⁶ cm/s. For the same compound, the Papp A→B at 120 min [2] was 1.16 ×10⁻⁶ cm/s and the Papp B→A at 120 min [2] was 25.5 ×10⁻⁶ cm/s.

With `CN1CCN(c2ccc(OC(F)(F)F)c(Nc3ncc4c(n3)-c3c(c(C(=O)NN)nn3CCO)CC4)c2)CC1` [Compound 13] the “Classification Efflux transporter substrate” value [1] was “Likely (ERa ≥ 2.00)”, the efflux ratio at 120 min [2] was > 28.6 and the Papp at 120 min [2] was < 0.5 ×10⁻⁶ cm/s. For the same compound, the Papp A→B at 120 min [2] was < 0.48 ×10⁻⁶ cm/s and the Papp B→A at 120 min [2] was 13.7 ×10⁻⁶ cm/s.
